conditions: in water, ionic strength 0 to 0.1 mole/liter, 25° C.

Structure (SMILES) | pKa
O=C(O)c1ccc(Cl)c(Cl)c1 [3,4-dichlorobenzoic acid] | 3.64
O=C(O)c1ccccc1F [o-fluorobenzoic acid] | 3.27
COc1ccccc1C(=O)O [o-methoxybenzoic acid] | 4.09
Nc1ccccc1C(=O)O [Anthranilic acid] | 4.79
O=C(O)c1c(Cl)cccc1Cl [2,6-dichlorobenzoic acid] | 1.82
O=C(O)c1cccc(Cl)c1 [m-chlorobenzoic acid] | 3.82
N#Cc1cccc(C(=O)O)c1 [m-cyanobenzoic acid] | 3.60
CNc1ccccc1C(=O)O [N-methylanthranilic acid] | 5.34

same assay, conditions: water

pKa | Structure (SMILES)
3.70 | CC(=O)c1ccc(C(=O)O)cc1 [p-acetylbenzoic acid]
4.27 | Cc1cccc(C(=O)O)c1 [m-methylbenzoic acid, reference compound]
3.46 | O=C(O)c1ccccc1-c1ccccc1 [o-phenylbenzoic acid]
2.31 | O=C(O)c1c(F)cccc1F [2,6-difluorobenzoic acid]
3.77 | O=C(O)c1cccc(C(F)(F)F)c1 [m-trifluoromethylbenzoic acid]
3.79 | CC(=O)c1ccccc1C(=O)O [o-acetylbenzoic acid]

The next lines start with the molecule.

Structure (SMILES) | pKa
O=C(O)c1ccccc1Cl [o-chlorobenzoic acid] | 2.92
O=C(O)c1ccccc1Br [o-bromobenzoic acid] | 2.85
O=C(O)c1c(F)c(F)c(F)c(F)c1F [pentafluorobenzoic acid, reference compound] | 1.48

From patent publication US5466858A, “Method of producing straight-chain acrylonitrile dimers” (priority 1993, dated 1995)
